The values that follow come from PMC10924921, “Mi-2β promotes immune evasion in melanoma by activating EZH2 methylation” (Nature Communications, 2024).

What all share (assay): biochemical
Holding throughout (design): KINOMEscan active-site competition binding panel (468 kinase assays), per cent of control at 1000 nM
What all share (settings): KINOMEscan per cent of control (binding competition); read-out: Percent Control

Experiment [1] addresses T1, IKK-epsilon (Homo sapiens, UniProt Q14164).
T1 construct: gene IKBKE
An excerpt:
(§1) Figure S7 / Percent Control

For experiment [2], the target named is EGFR(L747-T751del,Sins) (Homo sapiens, UniProt P00533, DEL747-750/T751S).
Text: as §1

The target of experiment [3] is T2, JAK2(JH1domain-catalytic) (Homo sapiens, UniProt O60674).
T2 construct: JH1domain-catalytic
Text: as §1

Experiment [4] concerns the target MAP3K15 (Homo sapiens, UniProt Q6ZN16).
Text: as §1

Experiment [5] deals with FLT4 (Homo sapiens, UniProt P35916).
Text: as §1

Experiment [6] addresses MARK3 (Homo sapiens, UniProt P27448).
Text: as §1

Experiment [7] has as its target ACVR2A (Homo sapiens, UniProt P27037).
Text: as §1

Experiment [8] addresses T3, JNK1 (Homo sapiens, UniProt P45983).
T3 construct: gene MAPK8
Text: as §1

The target of experiment [9] is T4, LKB1 (Homo sapiens, UniProt Q15831).
T4 construct: gene STK11
Text: as §1

The target in experiment [10] is BRSK2 (Homo sapiens, UniProt Q8IWQ3).
Text: as §1

Experiment [11] has as its target ALK(L1196M) (Homo sapiens, UniProt Q9UM73, L1196M).
Text: as §1

The target of experiment [12] is ABL2 (Homo sapiens, UniProt P42684).
Sequence of ABL2 (P42684 whole entry): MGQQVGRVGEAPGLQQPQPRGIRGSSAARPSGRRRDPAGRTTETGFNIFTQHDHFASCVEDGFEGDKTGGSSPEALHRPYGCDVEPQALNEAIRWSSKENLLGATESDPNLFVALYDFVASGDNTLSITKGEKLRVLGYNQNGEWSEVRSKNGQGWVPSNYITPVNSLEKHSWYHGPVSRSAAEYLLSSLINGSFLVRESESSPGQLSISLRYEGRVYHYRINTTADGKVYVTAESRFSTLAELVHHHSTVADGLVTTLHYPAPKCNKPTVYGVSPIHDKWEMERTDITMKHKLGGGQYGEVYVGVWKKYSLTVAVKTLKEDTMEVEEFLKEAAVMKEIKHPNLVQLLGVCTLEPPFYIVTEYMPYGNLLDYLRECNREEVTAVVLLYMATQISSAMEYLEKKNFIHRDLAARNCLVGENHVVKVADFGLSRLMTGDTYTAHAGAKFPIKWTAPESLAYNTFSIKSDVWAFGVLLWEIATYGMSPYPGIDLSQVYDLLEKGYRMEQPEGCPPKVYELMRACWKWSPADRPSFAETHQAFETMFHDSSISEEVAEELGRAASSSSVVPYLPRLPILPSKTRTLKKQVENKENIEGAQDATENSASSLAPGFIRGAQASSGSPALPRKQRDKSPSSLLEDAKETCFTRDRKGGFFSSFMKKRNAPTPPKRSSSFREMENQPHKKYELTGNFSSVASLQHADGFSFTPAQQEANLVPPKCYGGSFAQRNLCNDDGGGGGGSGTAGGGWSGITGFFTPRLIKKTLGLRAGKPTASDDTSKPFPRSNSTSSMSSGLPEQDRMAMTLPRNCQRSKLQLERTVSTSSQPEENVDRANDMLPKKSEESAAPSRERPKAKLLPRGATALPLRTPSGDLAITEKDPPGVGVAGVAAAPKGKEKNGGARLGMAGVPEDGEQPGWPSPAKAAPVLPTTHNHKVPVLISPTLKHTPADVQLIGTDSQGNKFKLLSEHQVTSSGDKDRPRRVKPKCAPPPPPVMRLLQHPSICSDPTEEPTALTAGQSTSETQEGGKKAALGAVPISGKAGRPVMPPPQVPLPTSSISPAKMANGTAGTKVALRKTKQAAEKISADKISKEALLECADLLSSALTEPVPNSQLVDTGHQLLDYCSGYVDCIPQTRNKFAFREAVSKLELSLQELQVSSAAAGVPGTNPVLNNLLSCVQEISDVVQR
Text: as §1

In experiment [13] the target is SGK2 (Homo sapiens, UniProt Q9HBY8).
Text: as §1

Experiment [14] addresses GRK1 (Homo sapiens, UniProt Q15835).
Text: as §1

Experiment [15] has as its target T5, SIK (Homo sapiens, UniProt P57059).
T5 construct: gene SIK1
Text: as §1

In experiment [16] the target is AKT3 (Homo sapiens, UniProt Q9Y243).
Sequence of AKT3 (Q9Y243 whole entry): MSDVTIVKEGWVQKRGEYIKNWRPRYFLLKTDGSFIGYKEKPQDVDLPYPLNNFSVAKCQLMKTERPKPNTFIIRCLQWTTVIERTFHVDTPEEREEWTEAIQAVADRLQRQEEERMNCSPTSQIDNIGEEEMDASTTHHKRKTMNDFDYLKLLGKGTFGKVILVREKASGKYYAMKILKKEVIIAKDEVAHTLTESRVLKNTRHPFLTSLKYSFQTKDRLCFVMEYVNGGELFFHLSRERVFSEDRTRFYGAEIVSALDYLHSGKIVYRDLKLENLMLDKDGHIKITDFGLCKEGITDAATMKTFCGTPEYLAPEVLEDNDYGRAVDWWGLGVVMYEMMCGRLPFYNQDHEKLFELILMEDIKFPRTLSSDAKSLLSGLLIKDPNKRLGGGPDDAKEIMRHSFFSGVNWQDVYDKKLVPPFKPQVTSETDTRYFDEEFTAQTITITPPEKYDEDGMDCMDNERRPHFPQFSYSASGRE
Text: as §1

Experiment [17] deals with PLK2 (Homo sapiens, UniProt Q9NYY3).
Text: as §1

In experiment [18] the target is FLT3(D835H) (Homo sapiens, UniProt P36888, D835H).
Text: as §1

Experiment [19] concerns the target T6, RSK1(Kin.Dom.2-C-terminal) (Homo sapiens, UniProt Q15418).
T6 construct: gene RPS6KA1; Kin.Dom.2-C-terminal
Text: as §1

In experiment [20] the target is T7, SNARK (Homo sapiens, UniProt Q9H093).
T7 construct: gene NUAK2
T7 sequence (Q9H093 whole entry): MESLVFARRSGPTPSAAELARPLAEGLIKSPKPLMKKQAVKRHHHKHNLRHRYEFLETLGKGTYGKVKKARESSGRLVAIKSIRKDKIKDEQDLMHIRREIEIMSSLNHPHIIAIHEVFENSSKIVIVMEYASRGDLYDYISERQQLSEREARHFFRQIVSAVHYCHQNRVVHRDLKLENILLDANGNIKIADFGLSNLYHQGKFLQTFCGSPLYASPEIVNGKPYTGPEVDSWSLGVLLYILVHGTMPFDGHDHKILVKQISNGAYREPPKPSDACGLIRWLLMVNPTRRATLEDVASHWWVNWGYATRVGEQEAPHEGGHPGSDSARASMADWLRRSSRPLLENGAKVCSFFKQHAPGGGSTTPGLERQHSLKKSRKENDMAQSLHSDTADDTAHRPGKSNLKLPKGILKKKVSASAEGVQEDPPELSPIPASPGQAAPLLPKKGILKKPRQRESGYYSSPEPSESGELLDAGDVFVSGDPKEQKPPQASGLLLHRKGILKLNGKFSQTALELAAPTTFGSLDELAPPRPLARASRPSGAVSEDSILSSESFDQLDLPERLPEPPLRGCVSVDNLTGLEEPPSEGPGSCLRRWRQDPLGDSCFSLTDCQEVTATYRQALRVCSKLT
Text: as §1

For experiment [21], the target named is KIT(D816V) (Homo sapiens, UniProt P10721, D816V).
Text: as §1

Experiment [22] addresses GAK (Homo sapiens, UniProt O14976).
Text: as §1

The target in experiment [23] is BRAF (Homo sapiens, UniProt P15056).
Text: as §1

Experiment [24] has as its target NEK11 (Homo sapiens, UniProt Q8NG66).
Text: as §1

Sequence of ACVR2A (P27037 whole entry): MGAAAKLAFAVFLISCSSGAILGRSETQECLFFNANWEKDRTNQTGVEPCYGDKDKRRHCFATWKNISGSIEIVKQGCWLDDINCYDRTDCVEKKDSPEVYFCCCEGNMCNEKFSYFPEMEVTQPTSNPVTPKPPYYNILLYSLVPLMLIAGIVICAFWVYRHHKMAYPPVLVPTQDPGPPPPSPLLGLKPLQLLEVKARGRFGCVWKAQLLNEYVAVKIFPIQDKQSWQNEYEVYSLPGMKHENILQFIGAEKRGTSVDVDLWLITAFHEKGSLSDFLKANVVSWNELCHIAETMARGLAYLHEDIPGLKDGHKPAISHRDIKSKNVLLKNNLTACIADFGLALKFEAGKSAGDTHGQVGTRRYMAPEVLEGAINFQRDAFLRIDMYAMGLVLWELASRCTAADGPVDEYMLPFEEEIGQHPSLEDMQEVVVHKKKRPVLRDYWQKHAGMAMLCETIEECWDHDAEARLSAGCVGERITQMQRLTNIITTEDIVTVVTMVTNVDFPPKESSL
Sequence of GRK1 (Q15835 whole entry): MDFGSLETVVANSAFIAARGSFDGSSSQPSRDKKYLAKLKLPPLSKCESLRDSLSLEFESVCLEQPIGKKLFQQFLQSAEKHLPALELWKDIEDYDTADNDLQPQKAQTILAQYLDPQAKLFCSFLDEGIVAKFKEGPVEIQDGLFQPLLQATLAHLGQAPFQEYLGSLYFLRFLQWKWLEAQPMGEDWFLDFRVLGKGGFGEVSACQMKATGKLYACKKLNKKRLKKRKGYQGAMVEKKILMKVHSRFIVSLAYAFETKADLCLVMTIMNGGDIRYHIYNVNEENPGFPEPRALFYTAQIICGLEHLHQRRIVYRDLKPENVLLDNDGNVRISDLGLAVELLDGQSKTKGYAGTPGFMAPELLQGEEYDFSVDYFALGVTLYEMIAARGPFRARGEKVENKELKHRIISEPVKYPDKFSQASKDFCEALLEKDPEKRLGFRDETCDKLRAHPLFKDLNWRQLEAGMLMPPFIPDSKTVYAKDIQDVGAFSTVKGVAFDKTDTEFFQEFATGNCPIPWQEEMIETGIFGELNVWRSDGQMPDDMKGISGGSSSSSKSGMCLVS
Sequence of MARK3 (P27448 whole entry): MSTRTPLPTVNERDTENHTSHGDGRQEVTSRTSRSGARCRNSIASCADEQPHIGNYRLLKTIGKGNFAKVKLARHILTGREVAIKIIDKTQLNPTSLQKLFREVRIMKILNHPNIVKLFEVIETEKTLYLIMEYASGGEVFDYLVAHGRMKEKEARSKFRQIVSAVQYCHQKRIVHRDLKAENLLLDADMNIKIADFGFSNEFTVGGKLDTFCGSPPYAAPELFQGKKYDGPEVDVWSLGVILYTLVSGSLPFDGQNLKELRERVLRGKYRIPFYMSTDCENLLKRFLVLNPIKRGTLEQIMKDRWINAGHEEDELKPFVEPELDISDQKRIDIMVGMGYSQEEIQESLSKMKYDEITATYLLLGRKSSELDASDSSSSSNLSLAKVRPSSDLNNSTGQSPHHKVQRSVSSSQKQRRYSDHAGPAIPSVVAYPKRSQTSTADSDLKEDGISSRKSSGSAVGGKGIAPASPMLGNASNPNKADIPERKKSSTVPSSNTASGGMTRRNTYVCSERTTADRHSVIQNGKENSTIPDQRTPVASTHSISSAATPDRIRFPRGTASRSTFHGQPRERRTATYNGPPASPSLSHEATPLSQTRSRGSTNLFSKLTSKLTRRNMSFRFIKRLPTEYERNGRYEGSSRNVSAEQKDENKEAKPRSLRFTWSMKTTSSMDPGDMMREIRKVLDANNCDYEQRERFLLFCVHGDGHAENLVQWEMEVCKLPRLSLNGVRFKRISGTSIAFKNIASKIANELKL
T1 sequence (Q14164 whole entry): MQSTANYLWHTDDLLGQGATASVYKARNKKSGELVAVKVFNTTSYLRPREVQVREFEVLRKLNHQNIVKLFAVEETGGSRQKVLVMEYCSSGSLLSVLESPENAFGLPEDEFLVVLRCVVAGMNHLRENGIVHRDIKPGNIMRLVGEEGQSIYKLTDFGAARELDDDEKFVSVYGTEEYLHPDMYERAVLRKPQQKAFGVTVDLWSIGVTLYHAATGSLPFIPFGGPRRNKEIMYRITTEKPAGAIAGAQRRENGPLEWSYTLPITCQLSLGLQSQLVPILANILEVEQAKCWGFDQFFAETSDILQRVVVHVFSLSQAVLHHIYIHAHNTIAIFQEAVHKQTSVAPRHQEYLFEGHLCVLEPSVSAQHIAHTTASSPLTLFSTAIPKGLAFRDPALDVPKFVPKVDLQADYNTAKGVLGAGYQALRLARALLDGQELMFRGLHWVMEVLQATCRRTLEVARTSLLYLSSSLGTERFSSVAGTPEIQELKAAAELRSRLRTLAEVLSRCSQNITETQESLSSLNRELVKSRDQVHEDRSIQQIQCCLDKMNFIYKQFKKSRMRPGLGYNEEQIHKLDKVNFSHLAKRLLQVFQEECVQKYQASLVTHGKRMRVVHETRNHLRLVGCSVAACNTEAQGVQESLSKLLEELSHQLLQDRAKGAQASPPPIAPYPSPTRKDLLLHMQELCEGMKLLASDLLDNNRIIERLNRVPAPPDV

As for `Cn1c(=O)[nH]c2ccc(-c3cccc(C(=O)NC4CCn5ccnc5C4)c3)cc21` (stereo not drawn) [Z36-MP5], the remaining binding at 1 µM in experiment [1] was 84%; in experiment [2], 84%; in experiment [3], 74%; in experiment [4], 52%; in [5], 80%; in experiment [6], 100%. In addition, the remaining binding at 1 µM in experiment [7] came out at 57%; in [8], 61%; in experiment [9], 97%; in experiment [10], 100%; in experiment [11], 78%; in experiment [12], 98%. Besides, the remaining binding at 1 µM in experiment [13] was found to be 64%; in experiment [14], 29%; in experiment [15], 81%; in experiment [16], 91%; in [17], 55%; in experiment [18], 81%. Moreover, the remaining binding at 1 µM in experiment [19] came out at 98%; in experiment [20], 64%; in experiment [21] it was 58%; in experiment [22] it was 71%; in [23], 88%; in experiment [24], 33%.
